Source: PubChem BioAssay (NCI)
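Assay format: 96-well plates, 48-hour exposure. Definition used: TGI = concentration required for complete inhibition of growth.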

Tests used:
Assay in all cases: NCI-60 cell line screen, 48 h
[1] = system: HS 578T breast
[2] = system: RXF 393 renal
[3] = system: SNB-75 CNS
[4] = system: OVCAR-5 ovarian
[5] = system: SF-268 CNS
[6] = system: HOP-62 NSCLC
[7] = system: HL-60(TB) leukemia
[8] = system: T-47D breast
[9] = system: NCI/ADR-RES ovarian
[10] = system: OVCAR-4 ovarian
[11] = system: IGROV1 ovarian
[12] = system: SR leukemia
[13] = system: SN12C renal
[14] = system: HCT-116 colon
[15] = system: ACHN renal
[16] = system: A549 NSCLC
[17] = system: MCF7 breast
[18] = system: NCI-H460 lung
[19] = system: SK-MEL-28 melanoma
[20] = system: SK-MEL-5 melanoma
[21] = system: SK-OV-3 ovarian
[22] = system: MOLT-4 leukemia
[23] = system: CCRF-CEM leukemia
[24] = system: UACC-257 melanoma
[25] = system: UO-31 renal
[26] = system: A498 renal
[27] = system: SK-MEL-2 melanoma
[28] = system: NCI-H226 lung
[29] = system: COLO 205 colon
[30] = system: UACC-62 melanoma
[31] = system: HOP-92 NSCLC
[32] = system: SF-539 CNS
[33] = system: LOX IMVI melanoma
[34] = system: HT29 colon
[35] = system: HCT-15 colon
[36] = system: SNB-19 CNS
[37] = system: NCI-H23 lung
[38] = system: K-562 leukemia
[39] = system: MDA-N
[40] = system: RPMI-8226 leukemia
[41] = system: PC-3 prostate
[42] = system: DU-145 prostate
[43] = system: BT-549 breast
[44] = system: U251 CNS
[45] = system: HCC-2998 colon
[46] = system: MDA-MB-435
[47] = system: SW-620 colon
[48] = system: OVCAR-3 ovarian
[49] = system: MALME-3M melanoma
[50] = system: 786-0 renal
[51] = system: TK-10 renal
[52] = system: KM12 colon
[53] = system: MDA-MB-231 breast
[54] = system: M14 melanoma
[55] = system: SF-295 CNS
[56] = system: EKVX NSCLC
[57] = system: OVCAR-8 ovarian
[58] = system: NCI-H522 lung
[59] = system: CAKI-1 renal

Compound: COc1ccc(C(=O)c2sc(N(C)C)nc2-c2ccccc2)cc1
- TGI [1]: > 100 µM
- TGI [2]: > 100 µM
- TGI [3]: 80.1 µM
- TGI [4]: > 100 µM
- TGI [5]: > 100 µM
- TGI [6]: > 100 µM
- TGI [7]: 40.9 µM
- TGI [8]: > 100 µM
- TGI [9]: 49.8 µM
- TGI [10]: > 100 µM
- TGI [11]: > 100 µM
- TGI [12]: > 100 µM
- TGI [13]: > 100 µM
- TGI [14]: > 100 µM
- TGI [15]: > 100 µM
- TGI [16]: > 100 µM
- TGI [17]: > 100 µM
- TGI [18]: 52.9 µM
- TGI [19]: > 100 µM
- TGI [20]: > 100 µM
- TGI [21]: 71.8 µM
- TGI [22]: > 100 µM
- TGI [23]: 65.2 µM
- TGI [24]: 86.1 µM
- TGI [25]: > 100 µM
- TGI [26]: 93.1 µM
- TGI [27]: 76.5 µM
- TGI [28]: > 100 µM
- TGI [29]: > 100 µM
- TGI [30]: > 100 µM
- TGI [31]: > 100 µM
- TGI [32]: > 100 µM
- TGI [33]: > 100 µM
- TGI [34]: > 100 µM
- TGI [35]: > 100 µM
- TGI [36]: > 100 µM
- TGI [37]: > 100 µM
- TGI [38]: > 100 µM
- TGI [39]: 53.8 µM
- TGI [40]: > 100 µM
- TGI [41]: > 100 µM
- TGI [42]: > 100 µM
- TGI [43]: 75.6 µM
- TGI [44]: > 100 µM
- TGI [45]: 48.5 µM
- TGI [46]: 52 µM
- TGI [47]: > 100 µM
- TGI [48]: 48.6 µM
- TGI [49]: > 100 µM
- TGI [50]: > 100 µM
- TGI [51]: > 100 µM
- TGI [52]: 73 µM
- TGI [53]: > 100 µM
- TGI [54]: > 100 µM

Compound: COc1cc2ncnc(Nc3cccc(Cl)c3)c2cc1OC
- TGI [1]: 25 µM
- TGI [2]: 26.8 µM
- TGI [3]: 13.4 µM
- TGI [4]: 47.2 µM
- TGI [5]: 53.9 µM
- TGI [6]: 58.7 µM
- TGI [7]: 62.4 µM
- TGI [8]: > 67.1 µM
- TGI [9]: 20.3 µM
- TGI [10]: 75.8 µM
- TGI [55]: 42.4 µM
- TGI [11]: 10.3 µM
- TGI [12]: 24.1 µM
- TGI [13]: 45.8 µM
- TGI [14]: 46.2 µM
- TGI [15]: 54.5 µM
- TGI [16]: 49 µM
- TGI [17]: 72.2 µM
- TGI [18]: 40.7 µM
- TGI [19]: 42.6 µM
- TGI [20]: 17.4 µM
- TGI [21]: 28.9 µM
- TGI [22]: 54.2 µM
- TGI [56]: 15.7 µM
- TGI [23]: 19.6 µM
- TGI [24]: 37.4 µM
- TGI [25]: 44 µM
- TGI [26]: 9.84 µM
- TGI [27]: 30 µM
- TGI [28]: 14.8 µM
- TGI [29]: > 70.5 µM
- TGI [30]: 22 µM
- TGI [31]: 38.9 µM
- TGI [32]: 32.8 µM
- TGI [33]: 43 µM
- TGI [34]: 34.9 µM
- TGI [35]: 52.8 µM
- TGI [36]: 82.1 µM
- TGI [37]: 44.5 µM
- TGI [38]: 47.3 µM
- TGI [39]: 42.6 µM
- TGI [40]: 42.3 µM
- TGI [41]: 70.2 µM
- TGI [42]: 38.3 µM
- TGI [43]: 13.7 µM
- TGI [57]: 26.1 µM
- TGI [44]: 79.4 µM
- TGI [45]: 54.3 µM
- TGI [46]: 34.1 µM
- TGI [47]: 45 µM
- TGI [48]: 35.8 µM
- TGI [49]: 19.8 µM
- TGI [50]: 44.1 µM
- TGI [58]: 18.4 µM
- TGI [51]: 3.61 µM
- TGI [59]: 25.5 µM
- TGI [52]: 28.8 µM
- TGI [53]: 54 µM
- TGI [54]: 25.4 µM
